# Assay results: patent publication US20030215817A1, “Modulation of gene expression in formation of fatty atherosclerotic lesions” (priority 2003, published 2003)
# Counter-ions that a name gives are not always drawn.
# Key:
# [1] = tested on: REC1_8 (MspI CCCG 243) mRNA; assay: quantified RT-PCR, Rec1_8; assay type: in vivo, rabbit; conditions: for Relative Abundance Rec1_8, 20 pg F: hypercholesterolemic plus lercanidipine racemate, eight weeks, H2 (normocholesterolemic)=1.0
# Experimental: (§1) Nineteen of the isolated DST clones were further validated using RT-PCR analyses; the data are presented in FIGS. 6-24 and in Tables 5-23, below. For each DST examined, the optimal annealing temperature and reagent conditions were determined for the corresponding set of primers (see Table 25) based on results from a preliminary experiment. In eight separate reactions, each set of primers was assayed to find the optimal conditions by adjusting the following four parameters: primer concentration, dNTP concentration, MgCl2 concentration, and number of Taq polymerase units. Once optimal conditions were determined, each DST was run in duplicate multiple simultaneous reactions which usually included at least four dilutions of template (cDNA library), plus control reactions lacking template, and six sequential data points for numbers of cycles.
# (§2) Reactions were performed using “Hot Start” PCR with the Clontech TaqStart antibody system (Cat. #5400-1). Each reaction contained 1 ml of the cDNA library dilution as template, determined amounts of AmpliTaq DNA polymerase (cat. #N808-0156), MgCl2, dNTPs (GibcoBRL cat. #10297-018), primer, and Clontech TaqStart Antibody in a 20 ml final reaction volume using 10×Taq buffer II (without MgCl2). Typically, a master mix containing all components except the template was prepared and aliquoted. Various templates were then added to these master mix samples and 20 ml volumes were subsequently dispensed into individual reaction tubes. At various times during the PCR run, tubes were removed sequentially on a predetermined schedule in order to quantitate expression of the target DST over a “window” of cycle times. After amplification, the samples were quantified via fluorimetry.
# (§3) PCR was performed at annealing temperatures that were five degrees above the average melting temperature of each primer pair. For primers greater than 10 bases (in a 0.05M salt solution), melting temperature was calculated using the following formula: Tm=59.9+41[% GC]−[675/Primer Length], where %GC is the decimal value. Following determination of the average melting temperature of the primer pair, the annealing temperature was determined by adding five degrees to the average melting temperature. PCR was performed using the following program: 1) 95 degrees Celsius, 3 minutes; 2) 95 degrees Celsius, 30 seconds; 3) TM+5 degrees Celsius, 30 seconds; 4) 72 degrees Celsius, for a time dependent on target length at 16 bp/second; 5) repeat steps 2-4 33 more cycles; 6) 72 degrees Celsius, 3 minutes; 7) 14 degrees Celsius, forever.
# (§4) Following temperature cycling, 2 ml of the PCR reaction was added to 140 ml of a 1:280 dilution of PicoGreen (Molecular Probes cat. #P-11495 (10×100 ml)) in TE pH 7.5 in a 96-well Costar UV microtiter plate (Fisher cat. #07-200623). The samples were mixed gently for 1.5 minutes and allowed to equilibrate at room temperature in the dark for 15 minutes. The concentration of the PCR products was quantified by fluorimetry using a PerSeptive Biosystems CytoFluor series 4000 multi-well plate reader.
# (§5) Background fluorescence was determined by using duplicate control samples that were cycled with all reaction components except the template. The mean value from these duplicate background control samples was subtracted from the corresponding experimental values prior to analyzing results. The sensitivity of the PicoGreen dsDNA assay is reported to be 250 pg/ml (50 pg dsDNA in a […] assay volume) using a fluorescence microplate reader such as was used in these measurements. […]
# [2] = tested on: REC1_17 (TCGT 199) mRNA; assay: quantified RT-PCR, Rec1_17; assay type: in vivo, rabbit; conditions: for Relative Abundance Rec1_17, 20 pg F: hypercholesterolemic plus lercanidipine racemate, eight weeks, H2 (normocholesterolemic)=1.0
# Experimental: as §1, §2, §3, §4, §5
# [3] = tested on: smooth muscle cell; conditions: in vitro (Corsini et al. 1996); cited from earlier work
# [4] = tested on: LDL; conditions: Soma et al. 1998; cited from earlier work
# [5] = in vivo studies (Soma 1998); cited from earlier work
# [6] = tested on: Rec1_22 (TGGG 164) mRNA; assay: quantified RT-PCR, Rec1_22; assay type: in vivo, rabbit; conditions: for Relative Abundance Rec1_22, 20 pg D: hypercholesterolemic plus lercanidipine R (−), eight weeks, H2 (normocholesterolemic)=1.0
# Experimental: as §1, §2, §3, §4
# (§6) Background fluorescence was determined by using duplicate control samples that were cycled with all reaction components except the template. The mean value from these duplicate background control samples was subtracted from the corresponding experimental values prior to analyzing results. The sensitivity of the PicoGreen dsDNA assay is reported to be 250 pg/ml (50 pg dsDNA in a […] assay volume) using a fluorescence microplate reader such as was used in these measurements.
# FIG. 22 is a graphical representation of the results of RT-PCR using 20 pg of clone REC1—22 template, in which the amount of PCR product (measured in arbitrary fluorescence units) is plotted against number of cycles, where polyA enriched mRNA was extracted from aortas of rabbits that were normocholesterolemic (filled diamonds, “H2”) and hypercholesterolemic plus lercanidipine R (−), eight weeks (filled squares, “D”).
# [7] = tested on: Rec1_24 (CCGG 232) mRNA; assay: quantified RT-PCR, Rec1_24; assay type: in vivo, rabbit; conditions: for Relative Abundance Rec1_24, 100 pg D: hypercholesterolemic plus lercanidipine R (−), eight weeks, H2 (normocholesterolemic)=1.0
# Experimental: as §1, §2, §3, §4, §6
# FIG. 23 is a graphical representation of the results of RT-PCR using 100 pg of clone REC1—24 template, in which the amount of PCR product (measured in arbitrary fluorescence units) is plotted against number of cycles, where polyA enriched mRNA was extracted from aortas of rabbits that were normocholesterolemic (filled diamonds, “H2”) and hypercholesterolemic plus lercanidipine R (−), eight weeks (filled squares, “D”).
# [8] = (R)-enantiomer compared with the other enantiomer of lercanidipine; cited from earlier work
# [9] = hypercholesterolemic animals receiving lercanidipine R (−) compared to normocholesterolemic animals
smiles,measurement,setting,value
"COC(=O)C1=C(C)NC(C)=C(C(=O)OC(C)(C)CN(C)CCC(c2ccccc2)c2ccccc2)C1c1cccc([N+](=O)[O-])c1 (racemic) [lercanidipine, lercanidipine hydrochloride]","Relative Abundance Rec1_8, 20 pg F",[1]; cycle 26,4.6
same,"Relative Abundance Rec1_8, 20 pg F",[1]; cycle 28,2.2
same,"Relative Abundance Rec1_8, 20 pg F",[1]; cycle 30,3.5
same,"Relative Abundance Rec1_8, 20 pg F",[1]; cycle 32,4.8
same,"Relative Abundance Rec1_8, 20 pg F",[1]; cycle 34,2.1
same,"Relative Abundance Rec1_8, 20 pg F",[1]; cycle 36,2.1
same,"expression of Rec1_8 at 8 weeks (RT-PCR study), in words",[1]; hypercholesterolemic animals receiving lercanidipine racemate,elevated
same,"Relative Abundance Rec1_17, 20 pg F",[2]; cycle 24,0.01
same,"Relative Abundance Rec1_17, 20 pg F",[2]; cycle 26,0.00
same,"Relative Abundance Rec1_17, 20 pg F",[2]; cycle 28,0.09
same,"Relative Abundance Rec1_17, 20 pg F",[2]; cycle 30,0.08
same,"Relative Abundance Rec1_17, 20 pg F",[2]; cycle 32,0.21
same,"Relative Abundance Rec1_17, 20 pg F",[2]; cycle 34,0.43
same,"expression of Rec1_17 at 8 weeks (RT-PCR study), in words",[2]; hypercholesterolemic animals receiving lercanidipine,decreased
same,smooth muscle cell migration and proliferation,[3],effectively reduce
same,antioxidant for LDL in endothelial cell-mediated oxidation,[4],act as an antioxidant
same,carotid intimal hyperplasia,[5],inhibit
"COC(=O)C1=C(C)NC(C)=C(C(=O)OC(C)(C)CN(C)CCC(c2ccccc2)c2ccccc2)[C@@H]1c1cccc([N+](=O)[O-])c1.Cl (single isomer, unassigned) [(R)-lercanidipine]","Relative Abundance Rec1_22, 20 pg D",[6]; cycle 26,0.0
same,"Relative Abundance Rec1_22, 20 pg D",[6]; cycle 28,0.0
same,"Relative Abundance Rec1_22, 20 pg D",[6]; cycle 30,0.5
same,"Relative Abundance Rec1_22, 20 pg D",[6]; cycle 32,0.7
same,"Relative Abundance Rec1_22, 20 pg D",[6]; cycle 34,0.8
same,"expression of Rec1_22 at 8 weeks (RT-PCR study), in words",[6]; [9],decreased
same,"Relative Abundance Rec1_24, 100 pg D",[7]; cycle 24,0.3
same,"Relative Abundance Rec1_24, 100 pg D",[7]; cycle 26,0.5
same,"Relative Abundance Rec1_24, 100 pg D",[7]; cycle 28,0.7
same,"Relative Abundance Rec1_24, 100 pg D",[7]; cycle 30,0.9
same,"Relative Abundance Rec1_24, 100 pg D",[7]; cycle 32,0.9
same,"Relative Abundance Rec1_24, 100 pg D",[7]; cycle 34,1.1
same,"expression of Rec1_24 at 8 weeks (RT-PCR study), in words",[7]; [9],generally somewhat decreased
same,"effectiveness in lowering blood pressure, less effective",[8],2-3 orders of magnitude
